Measurements: patent publication US8865623B2, “Herbicidally active cyclic diones and derivatives thereof, processes for their preparation, compositions, and method of controlling weeds” (Syngenta Limited, priority 2009, dated 2014)

Key:
Type in all cases: in vivo
[1] = system: Alopecurus myosuroides (ALOMY); assay: Pre-emergence herbicidal activity, glasshouse pot test; settings: Alopecurus myosuroides, 312 h; Rate 250 g/ha; pre-emergence spray; evaluated after 13 days; read-out: Pre-emergence activity ALOMY (100=total damage to plant; 0=no damage to plant)
Procedure, shortened: (§1)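 Visual damage (0 = no damage, 100 = total damage) was rated 13 days after spraying. Treatment was applied one day after sowing for pre-emergence, or after 8 days of cultivation for post-emergence, as aqueous spray of an acetone/water (50:50) formulation with 0.5% Tween 20.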

Lolium perenne (LOLPE) [2] = assay: as above; settings: Lolium perenne, 312 h; Rate 250 g/ha; pre-emergence spray; evaluated after 13 days; read-out: Pre-emergence activity LOLPE (100=total damage to plant; 0=no damage to plant)
Procedure, shortened: as §1

Avena fatua (AVEFA) [3] = assay: as above; settings: Avena fatua, 312 h; Rate 250 g/ha; pre-emergence spray; evaluated after 13 days; read-out: Pre-emergence activity AVEFA (100=total damage to plant; 0=no damage to plant)
Procedure, shortened: as §1

[4] = system: Echinochloa crus-galli (ECHCG); assay: as above; settings: Echinochloa crus-galli, 312 h; Rate 250 g/ha; pre-emergence spray; evaluated after 13 days; read-out: Pre-emergence activity ECHCG (100=total damage to plant; 0=no damage to plant)
Procedure, shortened: as §1

[5] = system: Alopecurus myosuroides (ALOMY); assay: Post-emergence herbicidal activity, glasshouse pot test; settings: Alopecurus myosuroides, 312 h, rate 250 g/ha, evaluated after 13 days, glasshouse, read-out: Post-emergence activity ALOMY (100=total damage to plant; 0=no damage to plant)
Procedure, shortened: as §1

Lolium perenne (LOLPE) [6] = assay: as above; settings: Lolium perenne, 312 h, rate 250 g/ha, evaluated after 13 days, glasshouse, read-out: Post-emergence activity LOLPE (100=total damage to plant; 0=no damage to plant)
Procedure, shortened: as §1

Avena fatua (AVEFA) [7] = assay: as above; settings: Avena fatua, 312 h, rate 250 g/ha, evaluated after 13 days, glasshouse, read-out: Post-emergence activity AVEFA (100=total damage to plant; 0=no damage to plant)
Procedure, shortened: as §1

[8] = system: Echinochloa crus-galli (ECHCG); assay: as above; settings: Echinochloa crus-galli, 312 h, rate 250 g/ha, evaluated after 13 days, glasshouse, read-out: Post-emergence activity ECHCG (100=total damage to plant; 0=no damage to plant)
Procedure, shortened: as §1

Structure (SMILES) | pest or weed control at 250 g/ha [1] | pest or weed control at 250 g/ha (Lolium perenne (LOLPE) [2]) | pest or weed control at 250 g/ha (Avena fatua (AVEFA) [3]) | pest or weed control at 250 g/ha [4] | pest or weed control at 250 g/ha [5] | pest or weed control at 250 g/ha (Lolium perenne (LOLPE) [6]) | pest or weed control at 250 g/ha (Avena fatua (AVEFA) [7]) | pest or weed control at 250 g/ha [8]
CCc1ccc(Oc2ccc(I)cn2)cc1C1=C(O)C(C)(C)OC(C)(C)C1=O [Example A-163] | 70% | 100% | 70% | 100% | 90% | 100% | 90% | 100%
CCc1ccc(Oc2c(F)cc(C#N)cc2F)cc1C1=C(O)C(C)(C)OC(C)(C)C1=O [Example A-166] | 20% | 10% | 20% | 40% | 30% | 20% | 20% | 60%
CCc1ccc(Oc2nc(F)c(F)cc2F)cc1C1=C(O)C(C)(C)OC(C)(C)C1=O [Example A-167] | 30% | 30% | 10% | 100% | 60% | 50% | 40% | 100%
CCc1ccc(Oc2nc3ccc(C)cc3s2)cc1C1=C(O)C(C)(C)OC(C)(C)C1=O [Example A-168] | 60% | 80% | 10% | 70% | 90% | 90% | 20% | 90%
CCc1ccc(Oc2cc(OC)c(Cl)nn2)cc1C1=C(O)C(C)(C)OC(C)(C)C1=O [Example A-169] | 20% | 10% | 0% | 30% | 20% | 20% | 30% | 30%
CCc1ccc(Oc2cnc3cc(F)ccc3n2)cc1C1=C(O)C(C)(C)OC(C)(C)C1=O [Example A-172] | 90% | 100% | 60% | 100% | 100% | 100% | 100% | 100%
CCc1ccc(Oc2nc3ccc(F)cc3nc2Cl)cc1C1=C(O)C(C)(C)OC(C)(C)C1=O [Example A-173] | 0% | 10% | 0% | 50% | 0% | 10% | 10% | 20%
CCc1ccc(Oc2nc3ccccc3nc2C(F)(F)F)cc1C1=C(O)C(C)(C)OC(C)(C)C1=O [Example A-174] | 50% | 70% | 40% | 100% | 90% | 90% | 100% | 100%
CCc1ccc(Oc2ccc(F)c(F)c2)cc1C1=C(O)C(C)(C)OC(C)(C)C1=O [Example A-177] | 0% | 30% | 0% | 60% | 0% | 40% | 20% | 70%
CCc1ccc(Oc2ccc(F)c(C(F)(F)F)c2)cc1C1=C(O)C(C)(C)OC(C)(C)C1=O [Example A-178] | 10% | 0% | 0% | 10% | 40% | 30% | 40% | 80%
CCc1ccc(Oc2ccc(Cl)cc2OC)cc1C1=C(O)C(C)(C)OC(C)(C)C1=O [Example A-181] | 0% | 0% | 0% | 0% | 0% | 20% | 0% | 30%
CCc1ccc(Oc2ccc(Cl)c(Cl)c2)cc1C1=C(O)C(C)(C)OC(C)(C)C1=O [Example A-182] | 30% | 80% | 30% | 90% | 90% | 60% | 60% | 100%
CCc1ccc(Oc2ccc(Cl)c(C(F)(F)F)c2)cc1C1=C(O)C(C)(C)OC(C)(C)C1=O [Example A-183] | 30% | 80% | 20% | 60% | 70% | 40% | 50% | 90%
CCc1ccc(Oc2ccc(Cl)c(C)c2)cc1C1=C(O)C(C)(C)OC(C)(C)C1=O [Example A-184] | 10% | 50% | 0% | 50% | 20% | 30% | 0% | 30%
CCc1ccc(Oc2cccc(C(F)(F)F)c2)cc1C1=C(O)C(C)(C)OC(C)(C)C1=O [Example A-185] | 0% | 0% | 0% | 30% | 20% | 30% | 20% | 70%
CCc1ccc(Oc2nc3ccc(Cl)cc3o2)cc1C1=C(O)C(C)(C)OC(C)(C)C1=O [Example A-188] | 90% | 100% | 90% | 90% | 100% | 100% | 100% | 100%
CCc1ccc(Oc2ccc(Br)cc2Cl)cc1C1=C(O)CC2(CCOCC2)CC1=O [Example A-189] | 50% | 60% | 40% | 90% | 90% | 90% | 100% | 100%
CCc1ccc(Oc2ccc(Cl)cc2Cl)cc1C1=C(O)CC2(CCOCC2)CC1=O [Example A-190] | 30% | 50% | 30% | 80% | 80% | 90% | 90% | 100%
CCc1ccc(Oc2ccc3cc(Cl)ccc3n2)cc1C1=C(O)CC2(CCOCC2)CC1=O [Example A-191] | 40% | 60% | 40% | 90% | 100% | 100% | 100% | 100%
CCc1ccc(Oc2c(F)ncc(Cl)c2F)cc1C1=C(O)C(C)(C)OC(C)(C)C1=O [Example A-192] | 0% | 0% | 0% | 20% | 0% | 10% | 10% | 40%
CCc1ccc(Oc2nc3c(Cl)cccc3s2)cc1C1=C(O)C(C)(C)OC(C)(C)C1=O [Example A-193] | 30% | 70% | 20% | 90% | 80% | 100% | 10% | 100%
